The test addresses T1, crosslinked smooth muscle actomyosin (chicken gizzard smooth muscle myosin subfragment-1 crosslinked to cardiac or skeletal actin) (Gallus gallus, UniProt P10587).
T1 construct: chicken gizzard smooth muscle myosin subfragment-1; from tissue; host or cells: chicken gizzard
Briefly: Lead optimization pyruvate kinase/horseradish peroxidase/pyruvate oxidase-coupled ATPase assay (compound dose response). It counts as biochemical. Particulars: read-out: IC50 Arithmetic Mean. The method in brief: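 IC50 is the midpoint of a 4-parameter dose–response fit of Amplex Red fluorescence (480/615 nm). Buffer was 12 mM potassium PIPES pH 7.00 at 22 °C with 100 mM KCl, 2 mM MgCl2, 0.15 mM ATP and 2 mM phosphate, with PK/pyruvate oxidase/HRP coupling. Enzyme: smooth muscle myosin S1 crosslinked to cardiac or skeletal actin, dosed empirically by activity.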

Each structure is given as a SMILES string. pIC50: −log10 of the molar value.

From patent US8071625B2, “Certain chemical entities, compositions, and methods” (Cytokinetics, Inc., priority 2006, dated 2011) come the findings set out here.

For `CCc1ccc(NC(=O)OCC2(C(=O)NCc3ccccc3Cl)CCN(C(=O)C(C)N(C)C(=O)OC(C)(C)C)CC2)cc1` (stereo not drawn) [(tert-butoxy)-N-[2-(4-{N-[(2-chlorophenyl)methyl]carbamoyl}-4-{[N-(4-ethylphenyl)carbamoyloxy]methyl}piperidyl)-1-methyl-2-oxoethyl]-N-methylcarboxamide], the negative-log IC50 (pIC50) was 5.21.

As to `CCc1ccc(NC(=O)OCC2(C(=O)NCc3ccccc3Cl)CCN(C(=O)CNC(=O)OC(C)(C)C)CC2)cc1` [(tert-butoxy)-N-[2-(4-{N-[(2-chlorophenyl)methyl]carbamoyl}-4-{[N-(4-ethylphenyl)carbamoyloxy]methyl}piperidyl)-2-oxoethyl]carboxamide], the pIC50 is 6.04.

As to `CCc1ccc(NC(=O)OCC2(C(=O)NCc3ccccc3)CCN(C(=O)CNC(=O)OC(C)(C)C)CC2)cc1` [(tert-butoxy)-N-[2-(4-{[N-(4-ethylphenyl)carbamoyloxy]methyl}-4-[N-benzylcarbamoyl]piperidyl)-2-oxoethyl]carboxamide], the pIC50 is 4.95.

Take `CCc1ccc(NC(=O)OCC2(C(=O)NCc3ccccc3F)CCN(C(=O)CNC(=O)OC(C)(C)C)CC2)cc1` [(tert-butoxy)-N-[2-(4-{[N-(4-ethylphenyl)carbamoyloxy]methyl}-4-{N-[(2-fluorophenyl)methyl]carbamoyl}piperidyl)-2-oxoethyl]carboxamide]: the pIC50 is 5.42.

Turning to `CCc1ccc(NC(=O)OCC2(C(=O)NCc3ccccc3C)CCN(C(=O)CNC(=O)OC(C)(C)C)CC2)cc1` [(tert-butoxy)-N-[2-(4-{[N-(4-ethylphenyl)carbamoyloxy]methyl}-4-{N-[(2-methylphenyl)methyl]carbamoyl}piperidyl)-2-oxoethyl]carboxamide], the pIC50 was 6.01.

`CCc1ccc(NC(=O)OCCN(CCN(C)C(=O)OC(C)(C)C)C(=O)NCc2ccccc2Cl)cc1` [(tert-butoxy)-N-[2-({[(2-chlorophenyl)methyl]amino}-N-{2-[N-(4-ethylphenyl)carbamoyloxy]ethyl}carbonylamino)ethyl]-N-methylcarboxamide]: the pIC50 was 4.74.

As to `CCc1ccc(NC(=O)OCC2(C(=O)NCc3ccccc3Cl)CCN(C(=O)CCCNC(=O)OC(C)(C)C)CC2)cc1` [(tert-butoxy)-N-[4-(4-{N-[(2-chlorophenyl)methyl]carbamoyl}-4-{[N-(4-ethylphenyl)carbamoyloxy]methyl}piperidyl)-4-oxobutyl]carboxamide], the pIC50 was 6.32.

Turning to `CCc1ccc(NC(=O)OCC2(C(=O)NCc3ccccn3)CCN(C(=O)CN)CC2)cc1` [({1-(2-aminoacetyl)-4-[N-(2-pyridylmethyl)carbamoyl](4-piperidyl)}methoxy)-N-(4-ethylphenyl)carboxamide], the pIC50 is 5.14.

Take `CCc1ccc(NC(=O)OCC2(C(=O)NCc3ncc[nH]3)CCN(C(=O)CN)CC2)cc1` [({1-(2-aminoacetyl)-4-[N-(imidazol-2-ylmethyl)carbamoyl](4-piperidyl)}methoxy)-N-(4-ethylphenyl)carboxamide]: the negative-log IC50 (pIC50) was 4.73.

As to `CCc1ccc(NC(=O)OCC2(C(=O)NCc3cccc4ccccc34)CCN(C(=O)CN)CC2)cc1` [({1-(2-aminoacetyl)-4-[N-(naphthylmethyl)carbamoyl](4-piperidyl)}methoxy)-N-(4-ethylphenyl)carboxamide], the pIC50 was 6.36.

Consider `CCc1ccc(NC(=O)OCC2(C(=O)NCc3ccccc3Cl)CCN(C(=O)NCCN)CC2)cc1` [N-(2-aminoethyl)(4-{N-[(2-chlorophenyl)methyl]carbamoyl}-4-{[N-(4-ethylphenyl)carbamoyloxy]methyl}piperidyl)carboxamide], for which the pIC50 is 6.80.

With `CCc1ccc(NC(=O)OCCN(CCN)C(=O)NCc2ccccc2Cl)cc1` [N-(2-aminoethyl){[(2-chlorophenyl)methyl]amino}-N-{2-[N-(4-ethylphenyl)carbamoyloxy]ethyl}carboxamide], the pIC50 was 5.55.

For the compound `CCc1ccc(NC(=O)OCCN(CCCN)C(=O)NCc2ccccc2Cl)cc1` [N-(3-aminopropyl){[(2-chlorophenyl)methyl]amino}-N-{2-[N-(4-ethylphenyl)carbamoyloxy]ethyl}carboxamide], the pIC50 was 5.59.

For `CCc1ccc(NC(=O)OCCN(CCCCCN)C(=O)NCc2ccccc2Cl)cc1` [N-(5-aminopentyl){[(2-chlorophenyl)methyl]amino}-N-{2-[N-(4-ethylphenyl)carbamoyloxy]ethyl}carboxamide], the pIC50 was 6.31.

For the compound `CCc1ccc(NC(=O)OC[C@@H]2C[C@@H](NC(=O)CN)CN2C(=O)NCc2ccccc2Cl)cc1` [N-((5S,3R)-1-{N-[(2-chlorophenyl)methyl]carbamoyl}-5-{[N-(4-ethylphenyl)carbamoyloxy]methyl}pyrrolidin-3-yl)-2-aminoacetamide], the pIC50 is 6.63.

On to `CCc1ccc(NC(=O)OC[C@@H]2C[C@@H](NC(C)=O)CN2C(=O)NCc2ccccc2Cl)cc1` [N-((5S,3R)-1-{N-[(2-chlorophenyl)methyl]carbamoyl}-5-{[N-(4-ethylphenyl)carbamoyloxy]methyl}pyrrolidin-3-yl)acetamide], for which the pIC50 is 5.73.

On to `CCc1ccc(NC(=O)NCCN(C)C(=O)NCc2ccccc2Cl)cc1` [N-[2-({[(2-chlorophenyl)methyl]amino}-N-methylcarbonylamino)ethyl][(4-ethylphenyl)amino]carboxamide], for which the pIC50 was 5.17.

Consider `CCc1ccc(CC(=O)NCC2(C(=O)NCc3ccccc3Cl)CCN(C(=O)CN)CC2)cc1` [N-[(1-(2-aminoacetyl)-4-{N-[(2-chlorophenyl)methyl]carbamoyl}(4-piperidyl))methyl]-2-(4-ethylphenyl)acetamide], for which the pIC50 was 4.83.

For the compound `CCc1ccc(NC(=O)N(CCN)CC2(C(=O)NCc3ccccc3Cl)CCN(C(=O)CN)CC2)cc1` [N-[(1-(2-aminoacetyl)-4-{N-[(2-chlorophenyl)methyl]carbamoyl}(4-piperidyl))methyl]-N-(2-aminoethyl)[(4-ethylphenyl)amino]carboxamide], the pIC50 was 4.79.

In the case of `CCc1ccc(NC(=O)N(CCCOC)CC2(C(=O)NCc3ccccc3Cl)CCN(C(=O)CN)CC2)cc1` [N-[(1-(2-aminoacetyl)-4-{N-[(2-chlorophenyl)methyl]carbamoyl}(4-piperidyl))methyl][(4-ethylphenyl)amino]-N-(3-methoxypropyl)carboxamide], the pIC50 is 4.91.

Consider `CCc1ccc(NC(=O)OCC2(C(=O)NCc3ccccc3Cl)CCN(C(=O)[C@@H](CO)NC(=O)OC(C)(C)C)CC2)cc1` [N-[(1R)-2-(4-{N-[(2-chlorophenyl)methyl]carbamoyl}-4-{[N-(4-ethylphenyl)carbamoyloxy]methyl}piperidyl)-1-(hydroxymethyl)-2-oxoethyl](tert-butoxy)carboxamide], for which the pIC50 is 5.46.

On to `CCc1ccc(NC(=O)OCC2(C(=O)NCc3ccccc3Cl)CCN(C(=O)[C@@H](C)NC(=O)OC(C)(C)C)CC2)cc1` [N-[(1R)-2-(4-{N-[(2-chlorophenyl)methyl]carbamoyl}-4-{[N-(4-ethylphenyl)carbamoyloxy]methyl}piperidyl)-1-methyl-2-oxoethyl](tert-butoxy)carboxamide], for which the pIC50 was 4.92.

With `CCc1ccc(NC(=O)OCC2(C(=O)NCc3ccccc3Cl)CCCN(C(=O)[C@H](CO)NC(=O)OC(C)(C)C)C2)cc1` (stereo partly drawn) [N-[(1S)-2-(3-{N-[(2-chlorophenyl)methyl]carbamoyl}-3-{[N-(4-ethylphenyl)carbamoyloxy]methyl}piperidyl)-1-(hydroxymethyl)-2-oxoethyl](tert-butoxy)carboxamide], the negative-log IC50 (pIC50) was 5.04.

`CCc1ccc(NC(=O)OCC2(C(=O)NCc3ccccc3Cl)CCN(C(=O)[C@H](CO)NC(=O)OC(C)(C)C)CC2)cc1` [N-[(1S)-2-(4-{N-[(2-chlorophenyl)methyl]carbamoyl}-4-{[N-(4-ethylphenyl)carbamoyloxy]methyl}piperidyl)-1-(hydroxymethyl)-2-oxoethyl](tert-butoxy)carboxamide]: the negative logarithm of the IC50 (pIC50) is 6.38.

As to `CCc1ccc(NC(=O)OCC2(C(=O)NCc3ccccc3Cl)CCN(C(=O)[C@H](C)NC(=O)OC(C)(C)C)CC2)cc1` [N-[(1S)-2-(4-{N-[(2-chlorophenyl)methyl]carbamoyl}-4-{[N-(4-ethylphenyl)carbamoyloxy]methyl}piperidyl)-1-methyl-2-oxoethyl](tert-butoxy)carboxamide], the pIC50 is 5.82.

Turning to `CCc1ccc(NC(=O)OCC2(C(=O)NCc3ccccc3Cl)CCN(C(=O)C3CCCCC3)CC2)cc1` [N-[(2-chlorophenyl)methyl](1-(cyclohexylcarbonyl)-4-{[N-(4-ethylphenyl)carbamoyloxy]methyl}(4-piperidyl))carboxamide], the pIC50 was 5.56.

With `CCc1ccc(NC(=O)OCC2(C(=O)NCc3ccccc3Cl)CCN(C(=O)C3CC3)CC2)cc1` [N-[(2-chlorophenyl)methyl](1-(cyclopropylcarbonyl)-4-{[N-(4-ethylphenyl)carbamoyloxy]methyl}(4-piperidyl))carboxamide], the pIC50 was 6.19.

Consider `CCc1ccc(NC(=O)OCC2(C(=O)NCc3ccccc3Cl)CCN(CC)CC2)cc1` [N-[(2-chlorophenyl)methyl](1-ethyl-4-{[N-(4-ethylphenyl)carbamoyloxy]methyl}(4-piperidyl))carboxamide], for which the pIC50 is 5.20.

As to `CCc1ccc(NC(=O)OCC2(C(=O)NCc3ccccc3Cl)CC(O)C(O)C2)cc1` (stereo not drawn) [N-[(2-chlorophenyl)methyl](1-{[N-(4-ethylphenyl)carbamoyloxy]methyl}-3,4-dihydroxycyclopentyl)carboxamide], the pIC50 is 5.26.

`CCc1ccc(NC(=O)OCC2(C(=O)NCc3ccccc3Cl)CC=CC2)cc1` [N-[(2-chlorophenyl)methyl](1-{[N-(4-ethylphenyl)carbamoyloxy]methyl}cyclopent-3-enyl)carboxamide]: the pIC50 is 5.87.

As usually defined, the pIC50 is the negative decadic logarithm of the IC50, by convention in mol/L.
